Laboratory results taken from article PMC11864979, “First-in-class ultralong-target-residence-time p38α inhibitors as a mitosis-targeted therapy for colorectal cancer” (Nature Cancer, 2025).
Where two headings read alike, the source gives them in different places.

What was measured:
Test in all cases: selectivity profiling in a panel of 340 wild-type kinases (Reaction Biology Europe)
Assay type in all cases: binding
[1] = molecular target: T1, 340 wild-type kinases (Homo sapiens, UniProt O00141)
T1 construct: purchased Reaction Biology Europe
T1 sequence (O00141 1-431): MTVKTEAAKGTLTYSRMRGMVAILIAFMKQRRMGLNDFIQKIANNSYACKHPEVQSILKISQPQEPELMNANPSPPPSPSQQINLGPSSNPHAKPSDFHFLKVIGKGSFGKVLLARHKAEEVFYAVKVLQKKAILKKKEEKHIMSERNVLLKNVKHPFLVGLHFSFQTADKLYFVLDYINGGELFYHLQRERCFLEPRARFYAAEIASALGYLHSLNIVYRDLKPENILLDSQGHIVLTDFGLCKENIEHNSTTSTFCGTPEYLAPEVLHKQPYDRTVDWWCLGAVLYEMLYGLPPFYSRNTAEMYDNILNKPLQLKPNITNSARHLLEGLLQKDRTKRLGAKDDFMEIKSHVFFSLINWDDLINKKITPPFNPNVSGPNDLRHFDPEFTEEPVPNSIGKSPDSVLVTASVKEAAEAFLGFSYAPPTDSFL

[2] = molecular target: T2, 340 wild-type kinases (Homo sapiens, UniProt P27037)
T2 construct: purchased Reaction Biology Europe

[3] = molecular target: T3, 340 wild-type kinases (Homo sapiens, UniProt P41240)
T3 construct: purchased Reaction Biology Europe

[4] = molecular target: T4, 340 wild-type kinases (Homo sapiens, UniProt P45984)
T4 construct: purchased Reaction Biology Europe

[5] = molecular target: T5, 340 wild-type kinases (Homo sapiens, UniProt P78527)
T5 construct: purchased Reaction Biology Europe

[6] = molecular target: T6, 340 wild-type kinases (Homo sapiens, UniProt Q02750)
T6 construct: purchased Reaction Biology Europe

[7] = molecular target: T7, 340 wild-type kinases (Homo sapiens, UniProt Q05397)
T7 construct: purchased Reaction Biology Europe

[8] = molecular target: T8, 340 wild-type kinases (Homo sapiens, UniProt Q06418)
T8 construct: purchased Reaction Biology Europe
T8 sequence (Q06418 41-890): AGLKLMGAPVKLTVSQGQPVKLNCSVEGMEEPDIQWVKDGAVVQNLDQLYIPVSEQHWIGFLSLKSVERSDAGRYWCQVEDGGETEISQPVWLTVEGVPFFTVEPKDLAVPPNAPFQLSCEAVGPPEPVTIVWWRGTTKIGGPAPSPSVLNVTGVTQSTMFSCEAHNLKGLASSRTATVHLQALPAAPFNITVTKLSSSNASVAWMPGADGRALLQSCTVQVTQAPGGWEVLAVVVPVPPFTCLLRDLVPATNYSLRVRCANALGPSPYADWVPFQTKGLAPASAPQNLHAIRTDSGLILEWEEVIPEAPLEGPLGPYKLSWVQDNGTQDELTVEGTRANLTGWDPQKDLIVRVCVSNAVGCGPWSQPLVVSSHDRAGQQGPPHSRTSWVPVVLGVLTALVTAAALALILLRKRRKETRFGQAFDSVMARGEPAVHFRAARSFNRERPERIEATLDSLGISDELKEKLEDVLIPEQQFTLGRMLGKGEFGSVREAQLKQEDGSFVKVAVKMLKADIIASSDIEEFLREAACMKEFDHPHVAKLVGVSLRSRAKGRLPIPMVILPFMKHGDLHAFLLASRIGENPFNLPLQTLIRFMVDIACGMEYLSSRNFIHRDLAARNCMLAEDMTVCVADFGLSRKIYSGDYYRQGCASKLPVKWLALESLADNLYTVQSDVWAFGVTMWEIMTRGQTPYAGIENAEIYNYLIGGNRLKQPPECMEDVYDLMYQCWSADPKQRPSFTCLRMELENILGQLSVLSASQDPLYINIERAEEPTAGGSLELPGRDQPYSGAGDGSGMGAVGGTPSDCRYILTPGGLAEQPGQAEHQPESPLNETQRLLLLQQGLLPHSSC

[9] = molecular target: T9, 340 wild-type kinases (Homo sapiens, UniProt Q14004)
T9 construct: purchased Reaction Biology Europe

[10] = molecular target: T10, 340 wild-type kinases (Homo sapiens, UniProt Q9BXA7)
T10 construct: purchased Reaction Biology Europe
T10 sequence (Q9BXA7 1-367): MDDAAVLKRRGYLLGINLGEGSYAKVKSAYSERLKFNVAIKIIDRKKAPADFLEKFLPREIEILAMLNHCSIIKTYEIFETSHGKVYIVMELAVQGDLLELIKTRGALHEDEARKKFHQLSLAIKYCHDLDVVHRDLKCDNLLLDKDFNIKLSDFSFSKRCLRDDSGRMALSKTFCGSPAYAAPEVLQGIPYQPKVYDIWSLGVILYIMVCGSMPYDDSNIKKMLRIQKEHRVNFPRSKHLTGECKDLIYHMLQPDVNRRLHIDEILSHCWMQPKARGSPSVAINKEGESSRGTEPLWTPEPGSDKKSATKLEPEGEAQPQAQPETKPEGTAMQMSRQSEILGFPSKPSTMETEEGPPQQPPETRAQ

[11] = read-out: CDK13/CycK residual activity

T4 sequence (P45984 whole entry): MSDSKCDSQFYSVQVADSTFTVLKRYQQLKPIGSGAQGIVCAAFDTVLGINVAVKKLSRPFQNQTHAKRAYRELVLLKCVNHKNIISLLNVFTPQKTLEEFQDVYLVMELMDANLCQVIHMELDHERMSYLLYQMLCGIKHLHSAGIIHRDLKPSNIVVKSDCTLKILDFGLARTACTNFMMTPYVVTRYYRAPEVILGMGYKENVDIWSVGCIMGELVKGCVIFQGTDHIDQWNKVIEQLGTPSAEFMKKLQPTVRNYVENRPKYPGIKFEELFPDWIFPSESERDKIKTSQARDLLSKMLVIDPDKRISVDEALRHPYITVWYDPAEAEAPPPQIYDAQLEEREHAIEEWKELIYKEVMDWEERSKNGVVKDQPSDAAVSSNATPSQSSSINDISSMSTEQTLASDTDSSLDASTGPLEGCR
T6 sequence (Q02750 whole entry): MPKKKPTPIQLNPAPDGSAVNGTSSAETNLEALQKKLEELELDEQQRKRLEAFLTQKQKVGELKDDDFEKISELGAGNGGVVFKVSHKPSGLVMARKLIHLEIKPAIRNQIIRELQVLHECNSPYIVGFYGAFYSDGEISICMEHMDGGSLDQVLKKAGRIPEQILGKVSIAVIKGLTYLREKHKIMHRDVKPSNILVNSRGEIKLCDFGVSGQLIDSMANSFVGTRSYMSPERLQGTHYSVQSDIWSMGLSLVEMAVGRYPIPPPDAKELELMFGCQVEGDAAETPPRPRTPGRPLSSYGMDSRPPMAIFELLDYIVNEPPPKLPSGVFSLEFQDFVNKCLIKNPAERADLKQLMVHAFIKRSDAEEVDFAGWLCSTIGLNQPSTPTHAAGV
T5 sequence (P78527 whole entry): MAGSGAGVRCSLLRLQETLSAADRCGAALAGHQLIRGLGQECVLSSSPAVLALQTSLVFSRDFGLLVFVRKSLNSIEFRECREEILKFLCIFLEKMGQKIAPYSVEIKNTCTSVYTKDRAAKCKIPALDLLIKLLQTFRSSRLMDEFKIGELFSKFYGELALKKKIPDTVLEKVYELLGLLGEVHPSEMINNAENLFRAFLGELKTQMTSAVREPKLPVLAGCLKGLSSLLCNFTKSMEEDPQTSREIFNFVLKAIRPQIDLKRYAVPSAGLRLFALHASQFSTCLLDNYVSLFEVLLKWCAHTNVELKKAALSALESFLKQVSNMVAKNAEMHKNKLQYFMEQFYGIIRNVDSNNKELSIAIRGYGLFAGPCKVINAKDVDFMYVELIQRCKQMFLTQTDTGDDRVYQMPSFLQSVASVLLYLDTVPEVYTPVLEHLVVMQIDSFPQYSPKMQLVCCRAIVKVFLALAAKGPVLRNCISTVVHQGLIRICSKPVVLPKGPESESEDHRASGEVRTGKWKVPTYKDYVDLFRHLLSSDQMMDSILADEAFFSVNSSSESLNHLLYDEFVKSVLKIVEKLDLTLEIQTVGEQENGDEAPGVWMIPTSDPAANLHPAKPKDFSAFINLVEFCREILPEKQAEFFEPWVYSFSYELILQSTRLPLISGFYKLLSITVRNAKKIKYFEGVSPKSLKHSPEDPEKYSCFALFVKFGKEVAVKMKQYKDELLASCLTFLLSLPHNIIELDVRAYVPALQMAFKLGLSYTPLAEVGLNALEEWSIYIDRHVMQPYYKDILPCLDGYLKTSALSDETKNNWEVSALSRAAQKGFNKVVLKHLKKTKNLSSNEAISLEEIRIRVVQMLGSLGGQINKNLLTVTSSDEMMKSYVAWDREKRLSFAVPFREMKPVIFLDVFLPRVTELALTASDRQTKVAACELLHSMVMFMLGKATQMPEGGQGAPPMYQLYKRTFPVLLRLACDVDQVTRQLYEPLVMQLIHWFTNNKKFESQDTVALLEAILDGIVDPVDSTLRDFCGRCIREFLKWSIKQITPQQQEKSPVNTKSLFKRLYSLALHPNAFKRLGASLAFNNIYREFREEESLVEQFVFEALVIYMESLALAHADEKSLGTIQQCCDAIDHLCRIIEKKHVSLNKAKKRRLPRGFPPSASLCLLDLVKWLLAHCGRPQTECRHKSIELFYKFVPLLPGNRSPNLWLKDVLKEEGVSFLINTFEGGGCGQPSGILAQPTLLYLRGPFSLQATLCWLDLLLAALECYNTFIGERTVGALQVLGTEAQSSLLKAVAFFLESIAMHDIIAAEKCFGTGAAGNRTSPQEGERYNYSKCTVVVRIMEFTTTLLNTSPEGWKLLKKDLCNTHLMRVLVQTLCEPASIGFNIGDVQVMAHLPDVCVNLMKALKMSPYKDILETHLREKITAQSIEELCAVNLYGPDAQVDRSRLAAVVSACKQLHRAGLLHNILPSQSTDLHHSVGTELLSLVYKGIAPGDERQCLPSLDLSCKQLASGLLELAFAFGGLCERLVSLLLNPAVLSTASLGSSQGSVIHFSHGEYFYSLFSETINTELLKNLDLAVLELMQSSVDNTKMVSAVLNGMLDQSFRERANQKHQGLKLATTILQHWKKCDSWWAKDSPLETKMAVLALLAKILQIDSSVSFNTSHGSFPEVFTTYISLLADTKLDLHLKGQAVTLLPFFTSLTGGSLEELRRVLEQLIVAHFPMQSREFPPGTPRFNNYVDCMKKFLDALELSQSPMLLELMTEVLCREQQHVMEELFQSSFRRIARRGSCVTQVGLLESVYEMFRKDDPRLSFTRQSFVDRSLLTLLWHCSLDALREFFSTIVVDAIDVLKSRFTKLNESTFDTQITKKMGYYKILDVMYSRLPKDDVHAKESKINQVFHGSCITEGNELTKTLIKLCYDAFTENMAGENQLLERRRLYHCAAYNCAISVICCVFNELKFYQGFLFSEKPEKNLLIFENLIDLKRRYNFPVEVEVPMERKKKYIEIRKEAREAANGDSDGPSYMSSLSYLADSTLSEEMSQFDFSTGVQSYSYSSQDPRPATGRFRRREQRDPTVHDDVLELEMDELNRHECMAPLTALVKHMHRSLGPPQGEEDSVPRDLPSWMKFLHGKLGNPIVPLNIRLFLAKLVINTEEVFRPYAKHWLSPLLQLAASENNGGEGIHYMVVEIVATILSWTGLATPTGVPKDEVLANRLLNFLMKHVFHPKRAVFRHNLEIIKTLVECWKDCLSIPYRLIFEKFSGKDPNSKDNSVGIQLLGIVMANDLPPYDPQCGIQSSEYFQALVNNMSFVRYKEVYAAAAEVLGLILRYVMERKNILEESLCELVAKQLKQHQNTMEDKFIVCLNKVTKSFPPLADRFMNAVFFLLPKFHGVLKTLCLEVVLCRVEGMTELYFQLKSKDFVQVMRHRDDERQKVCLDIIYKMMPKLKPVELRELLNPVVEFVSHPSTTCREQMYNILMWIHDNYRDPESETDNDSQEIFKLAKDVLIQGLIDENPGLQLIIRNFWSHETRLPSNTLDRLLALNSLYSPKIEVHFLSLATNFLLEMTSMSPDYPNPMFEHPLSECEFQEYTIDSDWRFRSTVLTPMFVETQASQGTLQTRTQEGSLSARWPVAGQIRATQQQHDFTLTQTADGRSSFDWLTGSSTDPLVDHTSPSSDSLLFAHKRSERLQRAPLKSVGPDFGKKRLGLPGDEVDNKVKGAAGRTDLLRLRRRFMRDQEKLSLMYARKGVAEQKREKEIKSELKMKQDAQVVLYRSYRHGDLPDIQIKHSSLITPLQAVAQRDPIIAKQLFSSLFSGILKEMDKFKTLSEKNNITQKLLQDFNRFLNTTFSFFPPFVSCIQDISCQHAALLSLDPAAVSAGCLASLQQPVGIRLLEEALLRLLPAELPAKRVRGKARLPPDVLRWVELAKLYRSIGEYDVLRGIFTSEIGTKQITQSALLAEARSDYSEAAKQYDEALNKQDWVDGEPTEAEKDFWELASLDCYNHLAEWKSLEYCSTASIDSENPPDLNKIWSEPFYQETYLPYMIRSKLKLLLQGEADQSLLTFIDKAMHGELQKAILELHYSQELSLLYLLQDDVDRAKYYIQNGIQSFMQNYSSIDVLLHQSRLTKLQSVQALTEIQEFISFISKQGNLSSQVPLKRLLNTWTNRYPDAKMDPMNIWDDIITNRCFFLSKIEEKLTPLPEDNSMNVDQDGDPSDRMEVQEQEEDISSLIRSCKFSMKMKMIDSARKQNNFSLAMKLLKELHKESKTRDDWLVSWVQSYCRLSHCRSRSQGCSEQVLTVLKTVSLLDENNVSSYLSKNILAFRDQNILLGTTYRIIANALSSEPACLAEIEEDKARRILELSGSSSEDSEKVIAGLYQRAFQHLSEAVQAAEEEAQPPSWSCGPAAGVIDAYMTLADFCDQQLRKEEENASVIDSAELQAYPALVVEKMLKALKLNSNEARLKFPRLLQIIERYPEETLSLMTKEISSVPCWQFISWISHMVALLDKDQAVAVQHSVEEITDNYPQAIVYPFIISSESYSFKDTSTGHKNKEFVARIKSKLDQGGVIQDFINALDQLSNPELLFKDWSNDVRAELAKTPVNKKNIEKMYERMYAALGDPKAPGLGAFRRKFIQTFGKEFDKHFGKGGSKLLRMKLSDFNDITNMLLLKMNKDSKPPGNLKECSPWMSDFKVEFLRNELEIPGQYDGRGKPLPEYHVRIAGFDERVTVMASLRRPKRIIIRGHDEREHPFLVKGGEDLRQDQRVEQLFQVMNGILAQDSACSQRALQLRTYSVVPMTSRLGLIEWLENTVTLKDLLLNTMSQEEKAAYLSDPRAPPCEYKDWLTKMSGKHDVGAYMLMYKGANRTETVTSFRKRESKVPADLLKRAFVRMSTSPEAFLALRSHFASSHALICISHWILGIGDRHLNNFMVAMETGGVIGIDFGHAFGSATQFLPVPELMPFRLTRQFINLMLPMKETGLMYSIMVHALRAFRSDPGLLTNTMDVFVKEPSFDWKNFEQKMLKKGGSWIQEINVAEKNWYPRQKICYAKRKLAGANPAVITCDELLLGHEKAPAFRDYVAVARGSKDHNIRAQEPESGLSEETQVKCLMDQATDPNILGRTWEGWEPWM

CNC(=O)c1ccc2c(c1)C(=O)c1ccc(Nc3ccc(F)c(NC(=O)C4CC4)c3)cc1CC2 [Compound 2015]
remaining activity at 0.2 µM ([1]; 0.2 µM 2015, read-out: SGK1 residual activity): 95.9% | remaining activity at 1 µM ([1]; 1 µM 2015, read-out: SGK1 residual activity): 91.4% | remaining activity at 0.2 µM ([1]; SGK1, 0.2 µM, read-out: residual activity): 95.8% | remaining activity at 1 µM ([1]; SGK1, 1 µM, read-out: residual activity): 91.4% | remaining activity at 0.2 µM ([2]; 0.2 µM 2015, read-out: ACVR2A residual activity): 119% | remaining activity at 1 µM ([2]; 1 µM 2015, read-out: ACVR2A residual activity): 104% | remaining activity at 0.2 µM ([2]; ACVR2A, 0.2 µM, read-out: residual activity): 119% | remaining activity at 1 µM ([2]; ACVR2A, 1 µM, read-out: residual activity): 104% | remaining activity at 0.2 µM ([3]; 0.2 µM 2015, read-out: CSK residual activity): 114% | remaining activity at 1 µM ([3]; 1 µM 2015, read-out: CSK residual activity): 93.1% | remaining activity at 0.2 µM ([3]; CSK, 0.2 µM, read-out: residual activity): 114% | remaining activity at 1 µM ([3]; CSK, 1 µM, read-out: residual activity): 93.1% | remaining activity at 0.2 µM ([4]; 0.2 µM 2015, read-out: JNK2 residual activity): 61.1% | remaining activity at 1 µM ([4]; 1 µM 2015, read-out: JNK2 residual activity): 40.4% | remaining activity at 0.2 µM ([4]; JNK2, 0.2 µM, read-out: residual activity): 61.1% | remaining activity at 1 µM ([4]; JNK2, 1 µM, read-out: residual activity): 40.4% | effect on JNK2 (in words) ([4]; panel of 340 kinases, 1 µM and 0.2 µM): moderate influence | remaining activity at 0.2 µM ([5]; 0.2 µM 2015, read-out: DNAPK residual activity): 111% | remaining activity at 1 µM ([5]; 1 µM 2015, read-out: DNAPK residual activity): 99.6% | remaining activity at 0.2 µM ([5]; DNAPK, 0.2 µM, read-out: residual activity): 111% | remaining activity at 1 µM ([5]; DNAPK, 1 µM, read-out: residual activity): 99.6% | remaining activity at 0.2 µM ([6]; 0.2 µM 2015, read-out: MEK1 residual activity): 105% | remaining activity at 1 µM ([6]; 1 µM 2015, read-out: MEK1 residual activity): 99.8% | remaining activity at 0.2 µM ([6]; MEK1, 0.2 µM, read-out: residual activity): 105% | remaining activity at 1 µM ([6]; MEK1, 1 µM, read-out: residual activity): 99.8% | remaining activity at 0.2 µM ([7]; 0.2 µM 2015, read-out: FAK residual activity): 121% | remaining activity at 1 µM ([7]; 1 µM 2015, read-out: FAK residual activity): 115% | remaining activity at 0.2 µM ([7]; FAK, 0.2 µM, read-out: residual activity): 121% | remaining activity at 1 µM ([7]; FAK, 1 µM, read-out: residual activity): 115% | remaining activity at 0.2 µM ([8]; 0.2 µM 2015, read-out: TYRO3 residual activity): 93.9% | remaining activity at 1 µM ([8]; 1 µM 2015, read-out: TYRO3 residual activity): 86.6% | remaining activity at 0.2 µM ([8]; TYRO3, 0.2 µM, read-out: residual activity): 94% | remaining activity at 1 µM ([8]; TYRO3, 1 µM, read-out: residual activity): 86.6% | remaining activity at 0.2 µM [9, 11]: 87.3% | remaining activity at 1 µM [9, 11]: 86.5% | remaining activity at 0.2 µM ([9]; read-out: residual activity): 87.3% | remaining activity at 1 µM ([9]; read-out: residual activity): 86.5% | remaining activity at 0.2 µM ([10]; 0.2 µM 2015, read-out: TSSK1 residual activity): 125% | remaining activity at 1 µM ([10]; 1 µM 2015, read-out: TSSK1 residual activity): 106% | remaining activity at 0.2 µM ([10]; TSSK1, 0.2 µM, read-out: residual activity): 125% | remaining activity at 1 µM ([10]; TSSK1, 1 µM, read-out: residual activity): 106%
